Test results from article PMC9841589, “Identification of 2-Aminoacyl-1,3,4-thiadiazoles as Prostaglandin E2 and Leukotriene Biosynthesis Inhibitors” (ACS Medicinal Chemistry Letters, 2022).

Target: T1, Human recombinant sEH (Homo sapiens, UniProt P34913)
T1 construct: made in house; host or cells: Sf9 cells infected with a baculovirus provided by Dr. B. Hammock
T1 sequence (P34913 1-555): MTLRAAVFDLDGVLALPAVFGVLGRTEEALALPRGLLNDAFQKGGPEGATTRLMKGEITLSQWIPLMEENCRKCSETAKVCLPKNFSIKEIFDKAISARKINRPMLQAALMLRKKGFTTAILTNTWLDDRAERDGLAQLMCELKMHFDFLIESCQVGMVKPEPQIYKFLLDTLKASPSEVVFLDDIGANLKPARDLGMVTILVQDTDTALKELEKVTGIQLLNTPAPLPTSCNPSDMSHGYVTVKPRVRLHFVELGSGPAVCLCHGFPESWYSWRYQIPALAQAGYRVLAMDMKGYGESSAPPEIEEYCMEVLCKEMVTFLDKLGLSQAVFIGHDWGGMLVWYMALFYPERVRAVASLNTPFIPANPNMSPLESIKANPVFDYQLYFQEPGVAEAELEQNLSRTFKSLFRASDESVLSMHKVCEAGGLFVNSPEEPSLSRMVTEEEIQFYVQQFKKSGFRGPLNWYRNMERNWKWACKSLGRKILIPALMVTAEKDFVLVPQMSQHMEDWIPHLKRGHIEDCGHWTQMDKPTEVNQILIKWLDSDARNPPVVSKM
Experiment: Activity assay of human recombinant sEH
Assay type: biochemical
Conditions: percentage of uninhibited control (100%), n = 3, n.i.: no inhibitory activity observed, read-out: sEH residual activity (%)
Protocol: 8) plus 5 mM glutathione, 100 µM EDTA and 5 µM hemoglobin) to a final concentration of 50 U/mL for COX-1 and 20 U/mL for COX-2, and pre-incubated with test compounds 3, 6, 7, and 9 (10 µM) or vehicle (0.1% DMSO) over 5 min at rt. After 1 min at 37 °C, reactions were started after addition of arachidonic acid to a final concentration of 5 µM for COX-1 and 2 µM for COX-2. After 5 min at 37 °C, 1 mL of ice-cold methanol was added for stopping the reactions on ice. Then, PGB 1 as internal standard and 530 µl PBS plus HCl were added, and solid-phase extraction was performed as reported before.4-6, 17-19 COXs product formation (12-HHT) was determined using RP-HPLC. 4-6, 17-19 Indomethacin (10 µM) and celecoxib (5 µM) were used as reference drugs.
Expression, purification and activity assay of human recombinant sEH
Human recombinant sEH was expressed in Sf9 cells and was infected using a baculovirus, provided by Dr. B. Hammock, University of California, Davis, CA. After 72 hours, cells were pelleted and sonicated (3 × 10 sec) at 4 °C in lysis buffer (50 mM NaHPO 4, pH = 8, 300 mM NaCl, 10% glycerol, 1 mM EDTA, 1 mM phenylmethanesulfonyl fluoride, 10 µg/mL of leupeptin, and 60 µg/mL of soybean trypsin inhibitor). Lysates were centrifuged over 60 min at 4 °C (100,000 × g), and supernatants were collected and submitted to a benzylthio-sepharose-affinity chromatography for sEH purification by elution with 4-fluorochalcone oxide in PBS plus 1 mM DTT and 1 mM EDTA.720 Bio-Rad protein detection kit (Bio-Rad Laboratories, Munich, Germany) was used for total protein on dialyzed and concentrated (Millipore Amicon-Ultra-15 centrifugal filter) enzyme solution and a fluorescence-based assay was used to define the epoxide hydrolase activity. 5,618, 19 Then, sEH was diluted in Tris buffer (25 mM, pH = 7) supplemented with 0.1 mg/mL of BSA to an appropriate enzyme concentration and pre-incubated with test compounds 3, 6, 7, 9 (10 µM) or vehicle (0.1% DMSO) for 15 min at rt. 50 µM 3-phenyl-cyano(6-methoxy-2-naphthalenyl)methyl ester-2-oxiraneacetic acid (PHOME), a non-fluorescent compound, was added for starting the reaction.
PHOME is enzymatically converted into a fluorescent compound, 6-methoxy-naphtaldehyde, detectable by using a spectrofluorometer setting λ em = 465 nm, λ ex = 330 nm. After 60 min, ZnSO 4 […]
(200 mM) was added for stopping the reaction, and then fluorescence was detected. AUDA (12-(3-adamantan-1-yl-ureido)-dodecanoic acid) (100 nM) was used as reference drug.
Human neutrophils and monocytes were freshly isolated from leukocyte concentrates obtained from the Institute of Transfusion Medicine, University Hospital Jena. […]

Row | remaining activity at 10 µM [%] | Compound
1 | 83.9 | Nc1ccccc1-c1ccc(-c2nnc(NC(=O)c3c(Cl)ccnc3Cl)s2)cc1 [compound 9]
2 | 67.7 | Cc1cc(C(=O)Nc2nnc(-c3ccc(-c4ccccc4N)cc3)s2)cc(Cl)n1 [compound 6]
3 | 164 | Nc1ccccc1-c1ccc(-c2nnc(NC(=O)c3ccccc3Br)s2)cc1 [compound 7]
4 | 96 | O=C(Nc1nnc(-c2ccc(-c3cccc(O)c3)cc2)s1)c1ccccc1Br [compound 3]
